According to patent US11618747B2, “LXR modulators with bicyclic core moiety” (OrsoBio, Inc., priority 2018, dated 2023):

What was measured:
[1] = molecular target: T1, LXRβ ligand-binding domain (Homo sapiens, UniProt P55055, DUP175-175); test: TR-FRETβ activity assay (NCoA3 coactivator peptide recruitment); assay type: biochemical; details: TR-FRET, 1 μM 24(S)-25-epoxycholesterol prestimulation; read-out: FRETβ (EC50 range)
T1 construct: amino acids 156-461; NP009052; made in house; host or cells: E. coli
T1 sequence (P55055 with tags, fused parts or gaps DUP175-175 limits assumed): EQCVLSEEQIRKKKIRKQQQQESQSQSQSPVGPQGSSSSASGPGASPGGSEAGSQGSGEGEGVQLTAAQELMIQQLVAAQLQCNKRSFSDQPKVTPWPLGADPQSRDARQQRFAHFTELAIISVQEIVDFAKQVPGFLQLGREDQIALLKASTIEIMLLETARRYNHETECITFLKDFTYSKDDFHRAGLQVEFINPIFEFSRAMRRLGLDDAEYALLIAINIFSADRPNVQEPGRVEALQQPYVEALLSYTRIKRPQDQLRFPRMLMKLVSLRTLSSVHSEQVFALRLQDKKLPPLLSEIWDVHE
Description: (§1) The tested compounds were usually dissolved, tested and stored as 20 mM stock solutions in DMSO. Since sulfonyl acetic acid derivatives tend to decarboxylate under these conditions, these stock solutions were prepared, tested and stored as 20 mM DMSO stock solutions containing 100 mM trifluoroacetic Acid (5 equivalents). Sulfonyl acetic acid derivatives are shelf stable as solid at rt for long time as reported by Griesbrecht et al. (Synlett 2010:374) or Faucher et al. (J. Med. Chem. 2004; 47:18).
Recombinant GST-LXRPβ ligand-binding domain (LBD; amino acids 156-461; NP009052; SEQ ID NO:4) was expressed in E. coli and purified via gluthatione-sepharose affinity chromatography. N-terminally biotinylated NCoA3 coactivator peptide (SEQ ID NO:7) was chemically synthesized (Eurogentec). Assays were done in 384 well format (final assay volume of 25 μL/well) in a Tris/HCl buffer (pH 6.8) containing KCl, bovine serum albumin, Triton-X-100 and 1 μM 24(S)-25-epoxycholesterol as LXR-prestimulating agonist. Assay buffer was provided and test articles (potential LXR inverse agonists) were titrated to yield final assay concentrations of 50 μM, 16.7 μM, 5.6 μM, 1.9 μM, 0.6 μM, 0.2 μM, 0.07 μM, 0.02 μM, 0.007 μM, 0.002 μM with one vehicle control. Finally, a detection mix was added containing anti GST-Tb cryptate (CisBio; 610SAXLB) and Streptavidin-XL665 (CisBio; 610SAXLB) as fluorescent donor and acceptor, respectively, as well as the coactivator peptide and LXRβ-LBD protein (SEQ ID NO:4). The reaction was mixed thoroughly, equilibrated for 1 h at 4° C. and vicinity of LXRβ and coactivator peptide was detected by measurement of fluorescence in a VictorX4 multiplate reader (PerkinElmer Life Science) using 340 nm as excitation and 615 and 665 nm as emission wavelengths. Assays were performed in triplicates.
Final Assay Concentrations of Components:
240 mM KCl, 1 μg/μL BSA, 0.002% Triton-X-100, […] anti GST-Tb cryptate, 2.5 ng/μL Streptavidin-XL665, coactivator peptide (400 nM), LXRβ protein (530 μg/mL, i.e. 76 nM).

[2] = molecular target: T2, full length (FL) LXRβ (Homo sapiens, UniProt P55055, DUP175-175); test: LXR Gal4 reporter transient transfection assay (FL-M2H Gal4β); assay type: cell-based; details: HEK293 cells, full length LXRβ; read-out: FL-M2H Gal4β (EC50 range)
T2 construct: the full length (FL) proteins of LXRα (amino acids 1-447); NP005684; NP009052; expressed in transfected cells; host or cells: HEK293
T2 sequence (P55055 with tags, fused parts or gaps DUP175-175): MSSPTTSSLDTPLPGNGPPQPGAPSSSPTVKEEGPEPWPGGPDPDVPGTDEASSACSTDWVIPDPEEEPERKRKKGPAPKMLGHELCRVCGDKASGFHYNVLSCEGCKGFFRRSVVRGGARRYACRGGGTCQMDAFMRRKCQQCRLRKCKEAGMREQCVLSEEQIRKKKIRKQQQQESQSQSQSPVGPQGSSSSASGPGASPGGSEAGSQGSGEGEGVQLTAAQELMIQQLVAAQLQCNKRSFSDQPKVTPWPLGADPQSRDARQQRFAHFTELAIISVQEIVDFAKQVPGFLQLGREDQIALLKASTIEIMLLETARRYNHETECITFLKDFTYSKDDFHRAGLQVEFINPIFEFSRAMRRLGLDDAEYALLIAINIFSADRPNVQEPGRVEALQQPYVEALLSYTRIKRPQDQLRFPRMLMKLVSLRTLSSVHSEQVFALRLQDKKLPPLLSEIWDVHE
Description: as §1
LXR Gal4 Reporter Transient Transfection Assays
LXRα and LXRβ activity status was determined via detection of interaction with coactivator and corepressor proteins in mammalian two-hybrid experiments (M2H). For this, via transient transfection the full length (FL) proteins of LXRα (amino acids 1-447; NP005684; SEQ ID NO:1) or LXRβ-(amino acids 1-461; NP009052; SEQ ID NO:2) or the ligand-binding domains (LBD) of LXRα (amino acids 155-447 SEQ ID NO:3) or LXRβ (amino acids 156-461; SEQ ID NO:4) were expressed from pCMV-AD (Stratagene) as fusions to the transcriptional activation domain of NFkB. As cofactors, domains of either the steroid receptor coactivator 1 (SRC1; amino acids 552-887; SEQ ID NO:5) or of the corepressor NCoR (amino acids 1906-2312; NP006302; SEQ ID NO:6) were expressed as fusions to the DNA binding domain of the yeast transcription factor GAL4 (from pCMV-BD; Stratagene). Interaction was monitored via activation of a coexpressed Firefly Luciferase Reporter gene under control of a promoter containing repetitive GAL4 response elements (vector pFRLuc; Stratagene). Transfection efficiency was controlled via cotransfection of constitutively active pRL-CMV Renila reniformis luciferase reporter (Promega). HEK293 cells were grown in minimum essential medium (MEM) with 2 mM L-glutamine and Earle's balanced salt solution supplemented with 8.3% fetal bovine serum, 0.1 mM non-essential amino acids, 1 mM sodium pyruvate, at 37° C. in 5% CO2. 3.5×10^4 cells/well were plated in 96-well cell culture plates in growth medium supplemented with 8.3% fetal bovine serum for 16-20 h to ˜90% confluency. For transfection, medium was taken off and LXR and cofactor expressing plasmids as well as the reporter plasmids are added in 30 μL OPTIMEM/well including polyethylene-imine (PEI) as vehicle. Typical amounts of plasmids transfected/well: pCMV-AD-LXR (5 ng), pCMV-BD-cofactor (5 ng), pFR-Luc (100 ng), pRL-CMV (0.5 ng). Compound stocks were prepared in DMSO, prediluted in MEM to a total volume of 120 μL, and added 4 h after addition of the transfection mixture (final vehicle concentration not exceeding 0.2%). Cells were incubated for additional 16 h, lysed for 10 min in 1× Passive Lysis Buffer (Promega) and Firefly and Renilla luciferase activities were measured sequentially in the same cell extract using buffers containing D-luciferine and coelenterazine, respectively. Measurements of luminescence were done in a BMG-luminometer.

| SMILES | EC50 [1] [nM] | EC50 [2] [nM] |
| --- | --- | --- |
| Cc1ccc(S(=O)(=O)n2c(-c3cccc(N4CC(C(=O)O)C4)c3)c(-c3ccsc3/C=N/O)c3cc(F)ccc32)cc1 [3/7] | 1000 to 10000 | < 100 |
| Cc1ccc(S(=O)(=O)n2c(-c3cccc(S(=O)(=O)CC(=O)O)c3)c(-c3ccsc3C#N)c3ccccc32)cc1 [3/15] | 1000 to 10000 | – |
| Cc1ccc(S(=O)(=O)n2c(-c3cccc(N4CC(C(=O)O)C4)c3)c(-c3ccsc3C(=O)N(C)C)c3cc(F)ccc32)cc1 [3/28] | > 10000 | 1000 to 10000 |
| Cc1ccc(S(=O)(=O)n2c(-c3cccc(-c4ccc(C(N)=O)cc4)c3)c(-c3ccsc3C#N)c3cc(F)ccc32)cc1 [6/2] | 100 to 1000 | < 100 |
| Cc1cccc(C#N)c1-c1c(-c2cccc(-c3ccc(C(=O)O)cc3Cl)c2)n(S(=O)(=O)c2ccc(C(F)F)cc2)c2ccc(F)cc12 [11/36, 2-chloro-3′-(3-(2-cyano-6-methylphenyl)-1-((4-(difluoro-methyl)phenyl)sulfonyl)-5-fluoro-1H-indol-2-yl)-[1,1′-biphenyl]-4-carboxylic Acid] | < 100 | < 100 |
| N#Cc1cccc(C#N)c1-c1c(-c2cccc(-c3ccc(C(=O)O)cc3)c2)n(S(=O)(=O)c2ccc(C(F)F)cc2)c2ccc(F)cc12 [11/50] | < 100 | < 100 |
| N#Cc1sccc1-c1c(-c2cccs2)n(S(=O)(=O)c2ccc(Cl)cc2)c2cc(OCC(=O)O)ccc12 [15/3] | > 10000 | – |
| N#Cc1sccc1-c1c(-c2ccccc2)n(S(=O)(=O)c2ccc(CC(=O)O)cc2)c2ccccc12 [27/1] | 1000 to 10000 | – |
| N#Cc1sccc1-c1c(-c2ccccc2)n(S(=O)(=O)c2ccc(-c3cccc(C(=O)O)c3)cc2)c2ccccc12 [27/2] | 1000 to 10000 | – |
| N#Cc1sccc1-c1c(-c2ccccc2)n(S(=O)(=O)c2ccc(CC(=O)O)s2)c2ccccc12 [27/3] | > 10000 | – |
| Cn1cnc(S(=O)(=O)n2c(-c3cccc(C4CC4C(=O)O)c3)c(-c3ccsc3C#N)c3ccccc32)c1 (stereo not drawn) [30/10] | > 10000 | – |
| Cc1ccc(S(=O)(=O)n2c(-c3cccc(-c4ccc(CN(C)C)cc4Cl)c3)c(-c3ccsc3C#N)c3cc(F)ccc32)cc1 [Example 2, 3-(2-(2′-Chloro-4′-((dimethylamino)methyl)-[1,1′-biphenyl]-3-yl)-5-fluoro-1-tosyl-1H-indol-3-yl)thiophene-2-carbonitrile] | 100 to 1000 | < 100 |
| Cc1ccc(S(=O)(=O)n2c(-c3cccc(-c4cncc(S(=O)(=O)CC(=O)O)c4)c3)c(-c3ccsc3C#N)c3ccccc32)cc1 [Example 5, 2-((5-(3-(3-(2-Cyanothiophen-3-yl)-1-tosyl-1H-indol-2-yl)phenyl)pyridin-3-yl)sulfonyl)acetic Acid] | 100 to 1000 | 1000 to 10000 |
| Cc1ccc(S(=O)(=O)n2c(-c3cccc(-c4ccc(C(=O)NO)cc4)c3)c(-c3ccsc3C#N)c3cc(F)ccc32)cc1 [Example 6, 3′-(3-(2-Cyanothiophen-3-yl)-5-fluoro-1-tosyl-1H-indol-2-yl)-N-hydroxy-[1,1′-biphenyl]-4-carboxamide] | 100 to 1000 | < 100 |
| Cc1ccc(S(=O)(=O)n2c(-c3cccc(-c4ccc(C(=O)NCCS(=O)(=O)O)cc4Cl)c3)c(-c3ccsc3C#N)c3cc(F)ccc32)cc1 [Example 10, 2-(2-Chloro-3′-(3-(2-cyanothiophen-3-yl)-5-fluoro-1-tosyl-1H-indol-2-yl)-[1,1′-biphenyl]-4-carboxamido)ethane-1-sulfonic Acid] | 100 to 1000 | 100 to 1000 |
| Cc1ccc(S(=O)(=O)n2c(-c3cccc(-c4ccc(C(=O)O)cc4Cl)c3)c(-c3ccccc3C#N)c3cc(F)ccc32)cc1 [Example 11, 2-Chloro-3′-(3-(2-cyanophenyl)-5-fluoro-1-tosyl-1H-indol-2-yl)-[1,1′-biphenyl]-4-carboxylic acid] | < 100 | < 100 |
| Cc1ccc(S(=O)(=O)n2c(-c3cccc(-c4cc(C)c(C(=O)O)cc4Cl)c3)c(-c3ccsc3C#N)c3cc(F)ccc32)cc1 [Example 12, 2-Chloro-3′-(3-(2-cyanothiophen-3-yl)-5-fluoro-1-tosyl-1H-indol-2-yl)-5-methyl-[1,1′-biphenyl]-4-carboxylic acid] | 100 to 1000 | < 100 |
| N#Cc1sccc1-c1c(-c2cccs2)n(S(=O)(=O)c2ccc(Cl)cc2)c2cc(C(=O)O)ccc12 [Example 19, 1-((4-Chlorophenyl)sulfonyl)-3-(2-cyanothiophen-3-yl)-2-(thiophen-2-yl)-1H-indole-6-carboxylic Acid] | > 10000 | – |
| Cc1ccc(S(=O)(=O)n2c(-c3cccc(-c4cnc(C(=O)O)cc4C)c3)c(-c3ccsc3C#N)c3cc(F)ccc32)cc1 [Example 36, 5-(3-(3-(2-Cyanothiophen-3-yl)-5-fluoro-1-tosyl-1/indol-2-yl)phenyl)-4-methylpicolinic Acid] | 1000 to 10000 | 100 to 1000 |
| Cc1ccc(S(=O)(=O)n2c(-c3cccc(-c4ccc(-c5nnn[nH]5)cc4Cl)c3)c(-c3ccsc3C#N)c3cc(F)ccc32)cc1 [Example 37, 3-(2-(2′-Chloro-4′-(1H-tetrazol-5-yl)-[1,1′-biphenyl]-3-yl)-5-fluoro-1-tosyl-1H-indol-3-yl)thiophene-2-carbonitrile] | 100 to 1000 | < 100 |
